Results reported in the NIST ThermoML archive (doi:10.1021/je800110r).
Several values for one entry are separate records, joined by “and”; a condition that tells them apart may be missing. Identical values can stand only once.

Conditions: 293.15 K, Liquid, Vibrating tube method

CCCCCCCCCC [decane]
Conditions | mass density
375 kPa | 730.1 kg/m3
394 kPa | 730.1 kg/m3
411 kPa | 730.1 kg/m3
427 kPa | 730.1 kg/m3
448 kPa | 730.1 kg/m3
469 kPa | 730.1 kg/m3
487 kPa | 730.1 kg/m3
510 kPa | 730.2 kg/m3
528 kPa | 730.3 kg/m3
551 kPa | 730.3 kg/m3
571 kPa | 730.3 kg/m3
605 kPa | 730.4 kg/m3
692 kPa | 730.3 kg/m3
760 kPa | 730.4 kg/m3
843 kPa | 730.5 kg/m3
898 kPa | 730.6 kg/m3
949 kPa | 730.5 kg/m3
998 kPa | 730.6 kg/m3
1057 kPa | 730.6 kg/m3
1102 kPa | 730.7 kg/m3
1141 kPa | 730.7 kg/m3
1165 kPa | 730.8 kg/m3
1196 kPa | 730.7 kg/m3
1214 kPa | 730.7 kg/m3
1243 kPa | 730.8 kg/m3
1266 kPa | 730.8 kg/m3
1302 kPa | 730.9 kg/m3
1332 kPa | 730.8 kg/m3
1362 kPa | 730.9 kg/m3
1397 kPa | 730.9 kg/m3
1430 kPa | 730.9 kg/m3
1459 kPa | 730.9 kg/m3
1493 kPa | 731 kg/m3
1535 kPa | 731.1 kg/m3
1567 kPa | 731.1 kg/m3
1623 kPa | 731 kg/m3
1669 kPa | 731.1 kg/m3
1712 kPa | 731.2 kg/m3
1762 kPa | 731.3 kg/m3
1802 kPa | 731.2 kg/m3
1843 kPa | 731.3 kg/m3
1915 kPa | 731.4 kg/m3
1974 kPa | 731.3 kg/m3
2021 kPa | 731.5 kg/m3
2094 kPa | 731.4 kg/m3
2187 kPa | 731.5 kg/m3
2240 kPa | 731.6 kg/m3
2295 kPa | 731.6 kg/m3
2363 kPa | 731.7 kg/m3
2423 kPa | 731.7 kg/m3
2496 kPa | 731.7 kg/m3
2561 kPa | 731.9 kg/m3
2629 kPa | 731.9 kg/m3
2700 kPa | 731.8 kg/m3
2720 kPa | 732.1 kg/m3
2731 kPa | 732 kg/m3
2742 kPa | 732 kg/m3
2755 kPa | 732 kg/m3
2770 kPa | 732 kg/m3
2785 kPa | 731.9 kg/m3
2795 kPa | 732 kg/m3
2813 kPa | 732 kg/m3
2824 kPa | 732 kg/m3
2834 kPa | 732 kg/m3
2851 kPa | 732.1 kg/m3
2884 kPa | 732 kg/m3
2939 kPa | 732.1 kg/m3
3009 kPa | 732.1 kg/m3
3026 kPa | 732.2 kg/m3
3040 kPa | 732.2 kg/m3
3052 kPa | 732.1 kg/m3
3064 kPa | 732.2 kg/m3
3077 kPa | 732.2 kg/m3
3094 kPa | 732.3 kg/m3
3109 kPa | 732.1 kg/m3
3122 kPa | 732.3 kg/m3
3136 kPa | 732.1 kg/m3
3147 kPa | 732.3 kg/m3
3155 kPa | 732.2 kg/m3
3188 kPa | 732.2 kg/m3
3283 kPa | 732.4 kg/m3
3344 kPa | 732.4 kg/m3
3442 kPa | 732.5 kg/m3
3479 kPa | 732.4 kg/m3
3494 kPa | 732.5 kg/m3
3506 kPa | 732.5 kg/m3
3529 kPa | 732.6 kg/m3
3551 kPa | 732.6 kg/m3
3564 kPa | 732.6 kg/m3
3584 kPa | 732.6 kg/m3
3599 kPa | 732.7 kg/m3
3619 kPa | 732.7 kg/m3
3635 kPa | 732.7 kg/m3
3653 kPa | 732.6 kg/m3
3672 kPa | 732.8 kg/m3
3690 kPa | 732.6 kg/m3
3705 kPa | 732.8 kg/m3
3719 kPa | 732.7 kg/m3
3735 kPa | 732.8 kg/m3
3748 kPa | 732.6 kg/m3
3764 kPa | 732.8 kg/m3
3781 kPa | 732.7 kg/m3
3793 kPa | 732.9 kg/m3
3810 kPa | 732.7 kg/m3
3829 kPa | 732.9 kg/m3
3842 kPa | 732.8 kg/m3
3861 kPa | 732.8 kg/m3
3881 kPa | 732.8 kg/m3
3894 kPa | 732.8 kg/m3
3916 kPa | 732.9 kg/m3
3929 kPa | 732.9 kg/m3
3952 kPa | 732.9 kg/m3
3964 kPa | 732.9 kg/m3
3984 kPa | 733 kg/m3
4001 kPa | 733 kg/m3
4012 kPa | 733 kg/m3
4029 kPa | 733 kg/m3
4046 kPa | 733 kg/m3
4060 kPa | 733 kg/m3
4084 kPa | 733 kg/m3
4099 kPa | 733 kg/m3
4117 kPa | 733 kg/m3
4130 kPa | 733.1 kg/m3
4150 kPa | 733.2 kg/m3
4166 kPa | 733 kg/m3
4190 kPa | 733 kg/m3
4211 kPa | 733 kg/m3
4226 kPa | 733.1 kg/m3
4247 kPa | 733.1 kg/m3
4269 kPa | 733.3 kg/m3
4281 kPa | 733.1 kg/m3
4302 kPa | 733.2 kg/m3
4323 kPa | 733.1 kg/m3
4338 kPa | 733.2 kg/m3
4361 kPa | 733.3 kg/m3
4382 kPa | 733.2 kg/m3
4401 kPa | 733.2 kg/m3
4420 kPa | 733.3 kg/m3
4439 kPa | 733.3 kg/m3
4450 kPa | 733.5 kg/m3
4464 kPa | 733.3 kg/m3
4478 kPa | 733.3 kg/m3
4500 kPa | 733.3 kg/m3
4518 kPa | 733.3 kg/m3
4530 kPa | 733.3 kg/m3
4544 kPa | 733.3 kg/m3
4558 kPa | 733.4 kg/m3
4571 kPa | 733.3 kg/m3
4586 kPa | 733.3 kg/m3
4595 kPa | 733.3 kg/m3
4616 kPa | 733.5 kg/m3
4637 kPa | 733.4 kg/m3
4652 kPa | 733.4 kg/m3
4671 kPa | 733.3 kg/m3
4685 kPa | 733.6 kg/m3
4705 kPa | 733.4 kg/m3
4728 kPa | 733.4 kg/m3
4742 kPa | 733.5 kg/m3
4760 kPa | 733.5 kg/m3
4773 kPa | 733.5 kg/m3
4795 kPa | 733.7 kg/m3
4810 kPa | 733.6 kg/m3
4831 kPa | 733.5 kg/m3
4849 kPa | 733.6 kg/m3
4877 kPa | 733.5 kg/m3
4901 kPa | 733.6 kg/m3
4914 kPa | 733.7 kg/m3
4937 kPa | 733.6 kg/m3
4953 kPa | 733.7 kg/m3
4976 kPa | 733.7 kg/m3
4996 kPa | 733.6 kg/m3
5014 kPa | 733.8 kg/m3
5029 kPa | 733.7 kg/m3
5053 kPa | 733.7 kg/m3
5076 kPa | 733.8 kg/m3
5091 kPa | 733.8 kg/m3
5103 kPa | 733.9 kg/m3
5127 kPa | 733.8 kg/m3
5148 kPa | 733.7 kg/m3
5166 kPa | 733.9 kg/m3
5187 kPa | 733.8 kg/m3
5202 kPa | 733.8 kg/m3
5220 kPa | 733.9 kg/m3
5234 kPa | 733.8 kg/m3
5248 kPa | 733.9 kg/m3
5264 kPa | 733.9 kg/m3
5278 kPa | 733.9 kg/m3
5297 kPa | 733.8 kg/m3
5299 kPa | 733.9 kg/m3
5304 kPa | 733.9 kg/m3
5315 kPa | 733.9 kg/m3
5319 kPa | 733.9 kg/m3
5329 kPa | 733.9 kg/m3
5335 kPa | 734 kg/m3
5346 kPa | 734 kg/m3
5352 kPa | 734 kg/m3
5362 kPa | 733.9 kg/m3
5375 kPa | 734 kg/m3
5393 kPa | 733.9 kg/m3
5395 kPa | 734 kg/m3
5409 kPa | 733.9 kg/m3
5422 kPa | 734 kg/m3
5424 kPa | 734.1 kg/m3
5440 kPa | 734 kg/m3
5459 kPa | 734 kg/m3
5475 kPa | 734.1 kg/m3
5492 kPa | 734 kg/m3
5508 kPa | 734 kg/m3
5522 kPa | 734 kg/m3
5541 kPa | 734.1 kg/m3
5556 kPa | 734.1 kg/m3
5570 kPa | 734.1 kg/m3
5592 kPa | 734.1 kg/m3
5612 kPa | 734.2 kg/m3
5626 kPa | 734.2 kg/m3
5643 kPa | 734.2 kg/m3
5656 kPa | 734.2 kg/m3
5676 kPa | 734.3 kg/m3
5696 kPa | 734.2 kg/m3
5714 kPa | 734.1 kg/m3
5734 kPa | 734.3 kg/m3
5753 kPa | 734.2 kg/m3
5771 kPa | 734.3 kg/m3
5792 kPa | 734.3 kg/m3
5808 kPa | 734.4 kg/m3
5824 kPa | 734.4 kg/m3
5839 kPa | 734.4 kg/m3
5858 kPa | 734.4 kg/m3
5880 kPa | 734.4 kg/m3
5902 kPa | 734.3 kg/m3
5918 kPa | 734.4 kg/m3
5937 kPa | 734.3 kg/m3
5957 kPa | 734.4 kg/m3
5977 kPa | 734.5 kg/m3
5992 kPa | 734.4 kg/m3
6012 kPa | 734.5 kg/m3
6035 kPa | 734.5 kg/m3
6050 kPa | 734.6 kg/m3
6077 kPa | 734.6 kg/m3
6097 kPa | 734.6 kg/m3
6112 kPa | 734.6 kg/m3
6135 kPa | 734.5 kg/m3
6161 kPa | 734.6 kg/m3
6198 kPa | 734.7 kg/m3
6243 kPa | 734.6 kg/m3
6254 kPa | 734.6 kg/m3
6257 kPa | 734.6 kg/m3
6259 kPa | 734.7 kg/m3
6262 kPa | 734.6 kg/m3
6265 kPa | 734.6 kg/m3
6266 kPa | 734.7 kg/m3 and 734.6 kg/m3
6267 kPa | 734.6 kg/m3
6268 kPa | 734.6 kg/m3
6278 kPa | 734.7 kg/m3
6299 kPa | 734.6 kg/m3
6320 kPa | 734.6 kg/m3
6344 kPa | 734.7 kg/m3
6362 kPa | 734.7 kg/m3
6383 kPa | 734.7 kg/m3
6411 kPa | 734.9 kg/m3
6436 kPa | 734.7 kg/m3
6451 kPa | 734.7 kg/m3
6476 kPa | 734.8 kg/m3
6502 kPa | 734.9 kg/m3
6521 kPa | 734.8 kg/m3
6550 kPa | 734.8 kg/m3
6573 kPa | 734.8 kg/m3
6596 kPa | 734.8 kg/m3
6622 kPa | 734.9 kg/m3
6642 kPa | 734.8 kg/m3
6665 kPa | 735 kg/m3
6692 kPa | 734.9 kg/m3
6725 kPa | 735 kg/m3
